In the assay the target is T1, hNav1.8 (Homo sapiens, UniProt Q9Y5Y9).
T1 construct: host or cells: HEK cells, stably transfected
In words: hNav1.8 whole-cell patch-clamp electrophysiology (conventional or PatchXpress 7000) in stably transfected HEK cells. In kind it is cell-based. As to conditions: estimated IC50 calculated from single point % inhibition; HEK cells expressing hNav1.8; 8 sec prepulse to V1/2, 20 msec step to 0 mV; average of replicates; read-out: Nav1.8 EIC50. The source says:
The ability of the benzimidazole derivatives of the formula (I) to inhibit the Nav1.8 channel may be measured using the assay described below.
HEK cells stably transfected with hNav1.8, purchased from Millipore (Millipore Corp., Billerica, Mass. 01821), were maintained according to manufacturer's instructions. For electrophysiological studies, cells were removed from the culture flask by brief trypsinization and re-plated at low density onto glass cover slips. Cells were typically used for electrophysiological experiments within 24 to 72 h after plating.
Cover slips containing HEK cells expressing hNav1.8 were placed in a bath on the stage of an inverted microscope and perfused (approximately 1 ml/min) with extracellular solution of the following composition: 138 mM NaCl, 2 mM CaCl2, 5.4 mM KCl, 1 mM MgCl2, 10 mM glucose, and 10 mM HEPES, pH 7.4, with NaOH. […] The osmolarity of the extracellular and intracellular solutions was 300 mOsm/kg and 295 mOsm/kg, respectively. All recordings were made at room temperature (22-24° C.) using AXOPATCH 200B amplifiers and PCLAMP software (Axon Instruments, Burlingame, Calif.).
hNav1.8 currents in HEK cells were measured using the whole-cell configuration of the patch-clamp technique (Hamill et al., 1981). Uncompensated series resistance was typically 2 to 5 mega ohms and >85% series resistance compensation was routinely achieved. As a result, voltage errors were negligible and no correction was applied. Current records were acquired at 20 to 50 KHz and filtered at 5 to 10 KHz.
HEK cells stably transfected with hNav1.8 were viewed under Hoffman contrast optics and placed in front of an array of flow pipes emitting either control or compound-containing extracellular solutions. All compounds were dissolved in dimethyl sulfoxide to make 10 mM stock solutions, which were then diluted into extracellular solution to attain the final concentrations desired.
The voltage-dependence of inactivation was determined by applying a series of depolarizing prepulses (8 sec long in 10 mV increments) from a negative holding potential. The voltage was then immediately stepped to 0 mV to assess the magnitude of the sodium current. Currents elicited at 0 mV were plotted as a function of prepulse potential to allow estimation of the voltage at which 50% of the channels were inactivated (midpoint of inactivation or V1/2). Compounds were tested for their ability to inhibit hNav1.8 sodium channels by activating the channel with a 20 msec voltage step to 0 mV following an 8 second conditioning prepulse to the empirically determined V1/2. Compound effect (% inhibition) was determined by difference in current amplitude before and after application of test compounds. For ease of comparison, “estimated IC50” values were calculated from single point electrophysiology data by the following equation, (tested concentration, uM)×(100-% inhibition/% inhibition). Inhibition values<20% and >80% were excluded from the calculation.
In some cases electrophysiological assays were conducted with PatchXpress 7000 hardware and associated software (Molecular Devices Corp). All assay buffers and solutions were identical to those used in conventional whole-cell voltage clamp experiments described above. hNav1.8 cells were grown as above to 50%-80% confluency and harvested by trypsinization. Trypsinized cells were washed and resuspended in extracellular buffer at a concentration of 1×10^6 cells/ml. The onboard liquid handling facility of the PatchXpress was used for dispensing cells and application of test compounds. Determination of the voltage midpoint of inactivation was as described for conventional whole-cell recordings. Cells were then voltage-clamped to the empirically determined V1/2 and current was activated by a 20 msec voltage step to 0 mV.
Estimated IC50 values for the compounds of formula (I) exemplified above are as follows. […]

In US8927587B2, “Chemical compounds” (Pfizer Limited, priority 2012, dated 2015) one finds IC50 data, which are given here for 34 molecules.

T1 sequence (Q9Y5Y9 whole entry): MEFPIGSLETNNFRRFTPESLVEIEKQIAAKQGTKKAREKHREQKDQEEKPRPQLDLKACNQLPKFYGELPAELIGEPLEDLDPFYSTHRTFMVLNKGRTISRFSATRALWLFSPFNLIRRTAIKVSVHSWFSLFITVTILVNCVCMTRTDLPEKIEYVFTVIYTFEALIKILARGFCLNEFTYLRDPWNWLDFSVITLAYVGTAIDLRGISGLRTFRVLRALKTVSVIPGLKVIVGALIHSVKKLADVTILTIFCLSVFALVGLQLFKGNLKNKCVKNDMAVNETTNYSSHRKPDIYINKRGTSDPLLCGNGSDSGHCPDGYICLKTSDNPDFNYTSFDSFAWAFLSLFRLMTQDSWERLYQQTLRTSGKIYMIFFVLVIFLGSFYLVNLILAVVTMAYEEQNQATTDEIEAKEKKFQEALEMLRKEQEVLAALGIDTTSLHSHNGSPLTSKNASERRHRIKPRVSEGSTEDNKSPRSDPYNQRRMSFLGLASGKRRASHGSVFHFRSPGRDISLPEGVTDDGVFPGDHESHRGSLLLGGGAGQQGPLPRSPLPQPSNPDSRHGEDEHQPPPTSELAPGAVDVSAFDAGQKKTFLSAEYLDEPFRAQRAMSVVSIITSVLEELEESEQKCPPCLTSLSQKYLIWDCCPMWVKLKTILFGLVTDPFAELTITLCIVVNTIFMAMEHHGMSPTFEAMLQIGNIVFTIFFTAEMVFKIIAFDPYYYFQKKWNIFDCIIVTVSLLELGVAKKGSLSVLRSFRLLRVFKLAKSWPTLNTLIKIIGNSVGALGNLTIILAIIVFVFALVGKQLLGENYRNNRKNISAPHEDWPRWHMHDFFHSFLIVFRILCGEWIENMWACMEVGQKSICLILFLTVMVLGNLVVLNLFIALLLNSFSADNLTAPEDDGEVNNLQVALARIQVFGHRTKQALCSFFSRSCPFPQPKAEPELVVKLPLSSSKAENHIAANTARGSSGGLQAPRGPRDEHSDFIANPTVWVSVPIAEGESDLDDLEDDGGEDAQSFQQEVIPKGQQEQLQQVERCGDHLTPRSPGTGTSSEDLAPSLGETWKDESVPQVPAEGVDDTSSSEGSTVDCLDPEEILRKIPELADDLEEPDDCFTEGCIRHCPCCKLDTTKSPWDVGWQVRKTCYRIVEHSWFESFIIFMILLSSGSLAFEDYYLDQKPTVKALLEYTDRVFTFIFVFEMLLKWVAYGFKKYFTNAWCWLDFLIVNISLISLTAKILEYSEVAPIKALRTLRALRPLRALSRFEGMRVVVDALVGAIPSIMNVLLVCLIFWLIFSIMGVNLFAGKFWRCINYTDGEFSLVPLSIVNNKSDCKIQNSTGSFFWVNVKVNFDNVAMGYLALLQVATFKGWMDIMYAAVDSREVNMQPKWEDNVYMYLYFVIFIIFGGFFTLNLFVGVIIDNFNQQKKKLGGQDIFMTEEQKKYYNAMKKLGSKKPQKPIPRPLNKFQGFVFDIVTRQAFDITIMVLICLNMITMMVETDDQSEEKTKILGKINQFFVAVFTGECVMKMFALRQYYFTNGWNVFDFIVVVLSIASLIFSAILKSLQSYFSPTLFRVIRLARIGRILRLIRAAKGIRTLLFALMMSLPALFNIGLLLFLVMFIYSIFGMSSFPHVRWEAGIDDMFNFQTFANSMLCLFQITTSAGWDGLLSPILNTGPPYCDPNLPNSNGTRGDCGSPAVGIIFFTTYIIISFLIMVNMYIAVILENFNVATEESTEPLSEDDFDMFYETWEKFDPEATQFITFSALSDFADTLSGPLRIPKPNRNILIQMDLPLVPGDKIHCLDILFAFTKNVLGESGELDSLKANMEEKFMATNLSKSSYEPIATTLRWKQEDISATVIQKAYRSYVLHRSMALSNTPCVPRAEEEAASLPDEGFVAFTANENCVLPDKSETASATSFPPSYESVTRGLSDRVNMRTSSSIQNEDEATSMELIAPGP

For the molecule `CCC(C)(C)c1ccc2[nH]c([C@@H](N)CC(N)=O)nc2c1` [Example 30, (3S)-3-Amino-3-[5-(2-methylbutan-2-yl)-1H-benzimidazol-2-yl]propanamide], the IC50 is 148 nM. The value for `CC(C)c1ccc2[nH]c([C@@H](N)[C@H](O)C(C)C)nc2c1` [Example 125, (1R,2R)-1-Amino-3-methyl-1-[5-(propan-2-yl)-1H-benzimidazol-2-yl]butan-2-ol] was 2220 nM. As to `CNC(=O)[C@H](C)[C@H](N)c1nc2cc(C(C)(C)C)ccc2[nH]1` [Example 108, (2R,3S)-3-Amino-3-(6-tert-butyl-1H-benzimidazol-2-yl)-N,2-dimethylpropanamide], the IC50 is 207 nM. In the case of `CCCC[C@@H](N)c1nc2cc(-c3ccc(C#N)cc3)ccc2[nH]1` [Example 58, 4-{2-[(1R)-1-aminopentyl]-1H-benzimidazol-5-yl}benzonitrile] it was 537 nM; in that of `CC(C)[C@H](N)c1nc2cc(-c3ccc(C#N)cc3)ccc2[nH]1` [Example 52, 4-{2-[(1S)-1-amino-2-methylpropyl]-1H-benzimidazol-5-yl}benzonitrile], 703 nM.

As for `C[C@@H](O)[C@H](N)c1nc2c(F)c(-c3ccc(C#N)cc3)ccc2[nH]1` [Example 98, 4-{2-[(1R,2R)-1-Amino-2-hydroxypropyl]-4-fluoro-1H-benzimidazol-5-yl}benzonitrile], the IC50 was 1350 nM. In the case of `CO[C@H](C)[C@H](N)c1nc2cc(-c3ccccc3C#N)ccc2[nH]1` [Example 77, 2-{2-[(1R,2R)-1-Amino-2-methoxypropyl]-1H-benzimidazol-5-yl}benzonitrile] it was 483 nM; in that of `CC(C)C[C@H](N)c1nc2cc(C(C)(C)C)ccc2[nH]1` [Example 14, (1S)-1-(5-tert-Butyl-1H-benzimidazol-2-yl)-3-methylbutan-1-amine], 476 nM; in that of `CC(C)(N)c1nc2cc(-c3cccc(Cl)c3C#N)ccc2[nH]1` [Example 73, 2-[2-(1-Amino-1-methylethyl)-1H-benzimidazol-5-yl]-6-chlorobenzonitrile], 827 nM. As for `COC[C@H](N)c1nc2cc(C(C)(C)C)ccc2[nH]1` [Example 12, (1R)-1-(5-tert-Butyl-1H-benzimidazol-2-yl)-2-methoxyethanamine], the IC50 was 243 nM. In the case of `CC(C)(C)c1ccc2[nH]c([C@@H]3C[C@@H](O)CN3)nc2c1` [Example 26, (3R,5S)-5-(5-tert-Butyl-1H-benzimidazol-2-yl)pyrrolidin-3-ol] it was 31.5 nM; in that of `CO[C@@H](C)[C@@H](N)c1nc2cc(-c3ccc(C#N)cc3)ccc2[nH]1` [Example 93, 4-{2-[(1S,2S)-1-Amino-2-methoxypropyl]-1H-benzimidazol-5-yl}benzonitrile], 746 nM. In the case of `CCC[C@H](N)c1nc2cc(-c3ccc(C#N)c(F)c3)ccc2[nH]1` [Example 146, 4-{2-[(1S)-1-Aminobutyl]-1H-benzimidazol-5-yl}-2-fluorobenzonitrile] it was 27.3 nM. In the case of `CO[C@H](C)[C@H](N)c1nc2cc(-c3ccc(C#N)cc3)c(F)cc2[nH]1` [Example 91, 4-{2-[(1R,2R)-1-Amino-2-methoxypropyl]-6-fluoro-1H-benzimidazol-5-yl}benzonitrile], the IC50 is 666 nM. In the case of `C[C@H](C(N)=O)[C@H](N)c1nc2cc(C(C)(C)C)ccc2[nH]1` (single isomer, unassigned) [Example 104] it was 1580 nM; in that of `CC(C)C[C@@H](N)c1nc2cc(-c3ccc(C#N)cc3)ccc2[nH]1` [Example 47, 4-{2-[(1R)-1-Amino-3-methylbutyl]-1H-benzimidazol-5-yl}benzonitrile], 781 nM. The value for `N#Cc1ccc(-c2ccc3[nH]c([C@@H]4C[C@H](F)CN4)nc3c2)cc1` [Example 61, 4-{2-[(2S,4S)-4-fluoropyrrolidin-2-yl]-1H-benzimidazol-5-yl}benzonitrile] was 698 nM; that for `C[C@@H](OC(N)=O)[C@H](N)c1nc2cc(C(C)(C)C)ccc2[nH]1` [Example 107, (1R,2R)-1-Amino-1-(6-tert-butyl-1H-benzimidazol-2-yl)propan-2-yl carbamate] was 356 nM. In the case of `CC(C)(N)c1nc2cc(-c3ccccc3C#N)ccc2[nH]1` [Example 74, 2-[2-(1-Amino-1-methylethyl)-1H-benzimidazol-5-yl]benzonitrile] it was 1360 nM; in that of `CCCC[C@H](N)c1nc2cc(C(C)(C)C)ccc2[nH]1` [Example 11, (1S)-1-(5-tert-Butyl-1H-benzimidazol-2-yl)pentan-1-amine], 29.7 nM; in that of `CC(C)(C)c1ccc2nc([C@@H](N)CO)cn2c1` [Example 155, (2R)-2-Amino-2-(6-tert-butylimidazo[1,2-a]pyridin-2-yl)ethanol], 208 nM. `C[C@@H](O)[C@H](N)c1nc2cc(-c3ccc(C#N)cc3C(F)(F)F)ccc2[nH]1` [Example 100, 4-{2-[(1R,2R)-1-Amino-2-hydroxypropyl]-1H-benzimidazol-5-yl}-3-(trifluoromethyl)benzonitrile]: the IC50 is 82.5 nM. In the case of `CCC(C)(C)c1ccc2[nH]c([C@H](C)N)nc2c1` [Example 35, (1S)-1-[5-(2-Methylbutan-2-yl)-1H-benzimidazol-2-yl]ethanamine] it was 171 nM. With `CC(C)(N)c1nc2cc(-c3cccc(C#N)c3)ccc2[nH]1` [Example 72, 3-[2-(1-Amino-1-methylethyl)-1H-benzimidazol-5-yl]benzonitrile], the IC50 was 2490 nM.

In the case of `CCC(C)(C)c1ccc2[nH]c([C@H]3NCC[C@@H]3O)nc2c1` [Example 37, (2R,3S)-2-[5-(2-Methylbutan-2-yl)-1H-benzimidazol-2-yl]pyrrolidin-3-ol], the IC50 was 650 nM. As for `N#Cc1ccc(-c2ccc3[nH]c([C@@H](N)CC(N)=O)nc3c2)c(Cl)c1` [Example 119, (3S)-3-Amino-3-[5-(2-chloro-4-cyanophenyl)-1H-benzimidazol-2-yl]propanamide], the IC50 was 671 nM. The value for `CC(C)(C)Cc1ccc2[nH]c([C@@H](N)CC(N)=O)nc2c1` [Example 118, (3S)-3-Amino-3-[5-(2,2-dimethylpropyl)-1H-benzimidazol-2-yl]propanamide] was 348 nM. In the case of `CCCC[C@H](N)c1nc2cc(-c3ccc(C#N)cc3)ccc2[nH]1` [Example 60, 4-{2-[(1S)-1-aminopentyl]-1H-benzimidazol-5-yl}benzonitrile] it was 166 nM; in that of `CC(C)(C)c1ccc2[nH]c([C@H](N)CCCO)nc2c1` [Example 135, (4R)-4-Amino-4-(5-tert-butyl-1H-benzimidazol-2-yl)butan-1-ol], 1000 nM.

`C[C@@H](O)[C@H](N)c1nc2cc(C(C)(C)C)ccc2[nH]1` [Example 78, (1R,2R)-1-Amino-1-(5-tert-butyl-1H-benzimidazol-2-yl)propan-2-ol]: the IC50 is 59.3 nM. In the case of `CC(C)(C)c1ccc2[nH]c([C@H]3CCCN3)nc2c1` [Example 25, 5-tert-Butyl-2-[(2R)-pyrrolidin-2-yl]-1H-benzimidazole] it was 74.2 nM; in that of `C[C@@H](O)[C@H](N)c1nc2c(Cl)c(-c3ccc(C#N)c(F)c3)ccc2[nH]1` [Example 121, 4-{2-[(1R,2R)-1-Amino-2-hydroxypropyl]-4-chloro-1H-benzimidazol-5-yl}-2-fluorobenzonitrile], 3050 nM; in that of `CC(C)(C)c1ccc2[nH]c([C@](C)(N)CO)nc2c1` [Example 80, (2S)-2-Amino-2-(5-tert-butyl-1H-benzimidazol-2-yl)propan-1-ol], 87.6 nM. In the case of `CC(C)(C)c1ccc2[nH]c([C@H]3CCN3)nc2c1` [Example 130, 2-[(2R)-Azetidin-2-yl]-5-tert-butyl-1H-benzimidazole] it was 1340 nM.
